Reference: the supplement of paper PMC10307832

How the values were obtained:
Test in all cases: relative viability (nuclei count vs DMSO), 5 days (fraction); higher = more cells survive
AZD8055 + Olaparib = compound: COc1ccc(-c2ccc3c(N4CCOC[C@@H]4C)nc(N4CCOC[C@@H]4C)nc3n2)cc1CO [AZD8055] + O=C(c1cc(Cc2n[nH]c(=O)c3ccccc23)ccc1F)N1CCN(C(=O)C2CC2)CC1 [Olaparib] (partner 8 µM)
Procedure, shortened: (§1)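 Nuclei were stained with Hoechst during a one-step fixation (final 0.05% Triton X-100, 1% formaldehyde, 1 ug/ml Hoechst) carried out 5 days after dosing, then counted on 4× images. The cells, lung cancer lines in 1536-well plates, had been dosed by pin tool the day after seeding with one drug alone or a fixed anchor-drug dose plus five library-drug doses (not always all listed) in √10 steps. Relative viability is the nuclei count in treated wells divided by that in vehicle wells, and each value is the median of duplicate plates.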

AZD8055 + Palbociclib = compound: COc1ccc(-c2ccc3c(N4CCOC[C@@H]4C)nc(N4CCOC[C@@H]4C)nc3n2)cc1CO [AZD8055] + CC(=O)c1c(C)c2cnc(Nc3ccc(N4CCNCC4)cn3)nc2n(C2CCCC2)c1=O [Palbociclib] (partner 0.5 µM)
Procedure, shortened: as §1

AZD8055 + Alpelisib = compound: COc1ccc(-c2ccc3c(N4CCOC[C@@H]4C)nc(N4CCOC[C@@H]4C)nc3n2)cc1CO [AZD8055] + Cc1nc(NC(=O)N2CCC[C@H]2C(N)=O)sc1-c1ccnc(C(C)(C)C(F)(F)F)c1 [Alpelisib] (partner 2 µM)
Procedure, shortened: as §1

AZD8055 + Pemetrexed = compound: COc1ccc(-c2ccc3c(N4CCOC[C@@H]4C)nc(N4CCOC[C@@H]4C)nc3n2)cc1CO [AZD8055] + Nc1nc2[nH]cc(CCc3ccc(C(=O)N[C@@H](CCC(=O)O)C(=O)O)cc3)c2c(=O)[nH]1 [Pemetrexed] (partner 0.2 µM)
Procedure, shortened: as §1

| Cell Line | relative viability (AZD8055 + Olaparib; first compound 0.01 µM) | relative viability (AZD8055 + Olaparib; first compound 0.03162 µM) | relative viability (AZD8055 + Olaparib; first compound 0.1 µM) | relative viability (AZD8055 + Olaparib; first compound 0.3162 µM) | relative viability (AZD8055 + Olaparib; first compound 1 µM) | relative viability (AZD8055 + Palbociclib; first compound 0.01 µM) | relative viability (AZD8055 + Palbociclib; first compound 0.03162 µM) | relative viability (AZD8055 + Palbociclib; first compound 0.1 µM) | relative viability (AZD8055 + Palbociclib; first compound 0.3162 µM) | relative viability (AZD8055 + Palbociclib; first compound 1 µM) | relative viability (AZD8055 + Alpelisib; first compound 0.01 µM) | relative viability (AZD8055 + Alpelisib; first compound 0.03162 µM) | relative viability (AZD8055 + Alpelisib; first compound 0.1 µM) | relative viability (AZD8055 + Alpelisib; first compound 0.3162 µM) | relative viability (AZD8055 + Alpelisib; first compound 1 µM) | relative viability (AZD8055 + Pemetrexed; first compound 0.01 µM) | relative viability (AZD8055 + Pemetrexed; first compound 0.03162 µM) | relative viability (AZD8055 + Pemetrexed; first compound 0.1 µM) | relative viability (AZD8055 + Pemetrexed; first compound 0.3162 µM) | relative viability (AZD8055 + Pemetrexed; first compound 1 µM) |
| --- | --- | --- | --- | --- | --- | --- | --- | --- | --- | --- | --- | --- | --- | --- | --- | --- | --- | --- | --- | --- |
| EKVX | 1 | 1.01 | 0.666 | 0.413 | 0.311 | 0.466 | 0.365 | 0.278 | 0.211 | 0.173 | 0.94 | 0.834 | 0.587 | 0.34 | 0.401 | 0.476 | 0.436 | 0.389 | 0.322 | 0.289 |
| EMC-BAC-2 | 0.391 | 0.465 | 0.395 | 0.272 | 0.244 | 0.477 | 0.437 | 0.376 | 0.31 | 0.29 | 0.706 | 0.663 | 0.469 | 0.281 | 0.297 | 0.501 | 0.465 | 0.474 | 0.396 | 0.316 |
| EPLC-272H | 0.627 | 0.589 | 0.333 | 0.281 | 0.245 | 0.319 | 0.303 | 0.309 | 0.27 | 0.219 | 0.927 | 0.754 | 0.546 | 0.445 | 0.404 | 0.361 | 0.363 | 0.369 | 0.321 | 0.331 |
| H3255 | 0.627 | 0.606 | 0.516 | 0.326 | 0.36 | 0.3 | 0.303 | 0.314 | 0.288 | 0.292 | 0.683 | 0.657 | 0.499 | 0.275 | 0.322 | 0.636 | 0.562 | 0.487 | 0.443 | 0.364 |
| HARA |  | 0.687 | 0.58 | 0.39 | 0.246 | 0.223 | 0.234 | 0.216 | 0.255 | 0.171 | 0.786 | 0.744 | 0.376 | 0.222 | 0.252 |  | 0.214 | 0.281 | 0.259 | 0.192 |
| HCC-15 | 0.776 | 0.697 | 0.643 | 0.47 | 0.35 | 0.858 | 0.687 | 0.667 | 0.369 | 0.275 | 0.86 | 0.769 | 0.639 | 0.366 | 0.282 | 0.241 | 0.236 | 0.209 | 0.238 | 0.241 |
| HCC-44 | 1.03 | 1.04 | 0.957 | 0.847 | 0.861 | 0.949 | 0.936 | 0.949 | 0.925 | 0.867 | 0.573 | 0.507 | 0.417 | 0.271 | 0.295 | 0.65 | 0.702 | 0.665 | 0.655 | 0.673 |
| HCC-78 | 0.758 | 0.632 | 0.54 | 0.388 | 0.383 | 0.492 | 0.529 | 0.379 | 0.437 | 0.463 | 0.303 | 0.204 | 0.181 | 0.217 | 0.221 | 0.967 | 0.865 | 0.855 | 0.88 | 0.896 |
